Laboratory results published in ChEMBL document CHEMBL4507268 (2021).

Legend:
[1] = target: Tyrosine-protein kinase ABL1 (Homo sapiens) (UniProt P00519); details: Compound concentration 1000.0 nM
[2] = target: Activin receptor type-2B (Homo sapiens) (UniProt Q13705); details: Compound concentration 1000.0 nM
[3] = target: ALK tyrosine kinase receptor (Homo sapiens) (UniProt Q9UM73); details: Compound concentration 1000.0 nM
[4] = target: Aurora kinase B (Homo sapiens) (UniProt Q96GD4); details: Compound concentration 1000.0 nM
Chain of Aurora kinase B (Homo sapiens) (Q96GD4 whole entry): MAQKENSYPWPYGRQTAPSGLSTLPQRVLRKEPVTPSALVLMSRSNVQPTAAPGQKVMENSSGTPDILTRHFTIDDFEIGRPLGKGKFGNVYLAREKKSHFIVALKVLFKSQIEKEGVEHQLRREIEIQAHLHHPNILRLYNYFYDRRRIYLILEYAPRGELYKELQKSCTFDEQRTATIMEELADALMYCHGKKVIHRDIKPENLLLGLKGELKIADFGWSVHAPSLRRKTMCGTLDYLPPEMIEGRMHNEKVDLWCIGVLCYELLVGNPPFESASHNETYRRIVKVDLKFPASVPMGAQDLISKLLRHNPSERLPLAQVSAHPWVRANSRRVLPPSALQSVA

[5] = target: Death-associated protein kinase 1 (Homo sapiens) (UniProt P53355); details: Compound concentration 1000.0 nM
[6] = test system: Epidermal growth factor receptor (Homo sapiens), P00533 [G719S]; details: Compound concentration 1000.0 nM
[7] = target: Receptor tyrosine-protein kinase erbB-4 (Homo sapiens) (UniProt Q15303); details: Compound concentration 1000.0 nM
[8] = target: Receptor-type tyrosine-protein kinase FLT3 (Homo sapiens) (UniProt P36888); details: Compound concentration 1000.0 nM
Chain of Receptor-type tyrosine-protein kinase FLT3 (Homo sapiens) (P36888 whole entry): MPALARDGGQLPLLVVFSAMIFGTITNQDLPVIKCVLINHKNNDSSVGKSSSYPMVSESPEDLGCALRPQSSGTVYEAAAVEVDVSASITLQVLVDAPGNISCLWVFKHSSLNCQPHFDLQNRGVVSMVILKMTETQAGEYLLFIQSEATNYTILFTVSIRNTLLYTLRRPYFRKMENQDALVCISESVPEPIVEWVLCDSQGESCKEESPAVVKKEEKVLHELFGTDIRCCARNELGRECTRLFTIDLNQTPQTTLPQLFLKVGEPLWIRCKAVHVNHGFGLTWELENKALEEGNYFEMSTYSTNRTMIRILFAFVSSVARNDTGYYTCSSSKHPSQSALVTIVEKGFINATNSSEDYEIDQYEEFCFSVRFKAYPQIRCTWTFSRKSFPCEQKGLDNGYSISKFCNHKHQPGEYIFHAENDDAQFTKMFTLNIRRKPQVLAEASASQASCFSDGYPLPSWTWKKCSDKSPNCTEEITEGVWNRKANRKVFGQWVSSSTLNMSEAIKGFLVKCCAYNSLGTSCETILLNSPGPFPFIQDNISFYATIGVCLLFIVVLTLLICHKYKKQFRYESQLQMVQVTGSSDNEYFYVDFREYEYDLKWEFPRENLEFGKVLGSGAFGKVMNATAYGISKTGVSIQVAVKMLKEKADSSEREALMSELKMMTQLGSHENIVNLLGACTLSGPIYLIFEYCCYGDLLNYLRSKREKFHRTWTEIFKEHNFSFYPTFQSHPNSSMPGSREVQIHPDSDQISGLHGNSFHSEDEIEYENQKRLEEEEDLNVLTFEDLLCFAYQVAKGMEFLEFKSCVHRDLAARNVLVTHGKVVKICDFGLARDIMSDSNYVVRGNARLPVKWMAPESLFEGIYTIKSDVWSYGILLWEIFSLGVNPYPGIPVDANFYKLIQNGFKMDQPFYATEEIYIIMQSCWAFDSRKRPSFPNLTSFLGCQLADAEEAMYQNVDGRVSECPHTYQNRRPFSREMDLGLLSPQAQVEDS

[9] = target: Receptor-type tyrosine-protein kinase FLT3 (Homo sapiens) (UniProt P36888); details: Compound concentration 1000.0 nM; remark: listed apart in the source
[10] = target: Tyrosine-protein kinase JAK1 (Homo sapiens) (UniProt P23458); details: Compound concentration 1000.0 nM
[11] = test system: Mast/stem cell growth factor receptor Kit (Homo sapiens), P10721 [V559D,V654A]; details: Compound concentration 1000.0 nM
[12] = test system: Hepatocyte growth factor receptor (Homo sapiens), P08581 [M1250T]; details: Compound concentration 1000.0 nM
[13] = target: Serine/threonine-protein kinase 26 (Homo sapiens) (UniProt Q9P289); details: Compound concentration 1000.0 nM
[14] = target: T1, Serine/threonine-protein kinase Nek2 (Homo sapiens) (UniProt P51955); details: Compound concentration 1000.0 nM
T1 sequence (whole entry): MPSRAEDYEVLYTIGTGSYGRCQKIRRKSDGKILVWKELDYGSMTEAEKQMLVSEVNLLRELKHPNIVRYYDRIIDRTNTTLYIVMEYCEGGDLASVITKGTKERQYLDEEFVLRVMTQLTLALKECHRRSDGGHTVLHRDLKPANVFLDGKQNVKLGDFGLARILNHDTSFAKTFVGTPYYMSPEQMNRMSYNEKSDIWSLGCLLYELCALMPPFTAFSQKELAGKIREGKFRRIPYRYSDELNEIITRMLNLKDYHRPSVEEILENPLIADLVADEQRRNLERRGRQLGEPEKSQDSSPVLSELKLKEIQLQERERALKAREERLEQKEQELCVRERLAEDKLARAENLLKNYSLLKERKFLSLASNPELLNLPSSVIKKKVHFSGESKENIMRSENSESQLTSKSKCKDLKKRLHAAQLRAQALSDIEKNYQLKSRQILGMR

[15] = target: Cyclin-dependent kinase 18 (Homo sapiens) (UniProt Q07002); details: Compound concentration 1000.0 nM
[16] = target: Cyclin-dependent kinase 15 (Homo sapiens) (UniProt Q96Q40); details: Compound concentration 1000.0 nM
[17] = target: Phosphatidylinositol 4-phosphate 5-kinase type-1 alpha (Homo sapiens) (UniProt Q99755); details: Compound concentration 1000.0 nM
[18] = target: Ribosomal protein S6 kinase alpha-5 (Homo sapiens) (UniProt O75582); details: Compound concentration 1000.0 nM
Chain of Ribosomal protein S6 kinase alpha-5 (Homo sapiens) (O75582 whole entry, looked up): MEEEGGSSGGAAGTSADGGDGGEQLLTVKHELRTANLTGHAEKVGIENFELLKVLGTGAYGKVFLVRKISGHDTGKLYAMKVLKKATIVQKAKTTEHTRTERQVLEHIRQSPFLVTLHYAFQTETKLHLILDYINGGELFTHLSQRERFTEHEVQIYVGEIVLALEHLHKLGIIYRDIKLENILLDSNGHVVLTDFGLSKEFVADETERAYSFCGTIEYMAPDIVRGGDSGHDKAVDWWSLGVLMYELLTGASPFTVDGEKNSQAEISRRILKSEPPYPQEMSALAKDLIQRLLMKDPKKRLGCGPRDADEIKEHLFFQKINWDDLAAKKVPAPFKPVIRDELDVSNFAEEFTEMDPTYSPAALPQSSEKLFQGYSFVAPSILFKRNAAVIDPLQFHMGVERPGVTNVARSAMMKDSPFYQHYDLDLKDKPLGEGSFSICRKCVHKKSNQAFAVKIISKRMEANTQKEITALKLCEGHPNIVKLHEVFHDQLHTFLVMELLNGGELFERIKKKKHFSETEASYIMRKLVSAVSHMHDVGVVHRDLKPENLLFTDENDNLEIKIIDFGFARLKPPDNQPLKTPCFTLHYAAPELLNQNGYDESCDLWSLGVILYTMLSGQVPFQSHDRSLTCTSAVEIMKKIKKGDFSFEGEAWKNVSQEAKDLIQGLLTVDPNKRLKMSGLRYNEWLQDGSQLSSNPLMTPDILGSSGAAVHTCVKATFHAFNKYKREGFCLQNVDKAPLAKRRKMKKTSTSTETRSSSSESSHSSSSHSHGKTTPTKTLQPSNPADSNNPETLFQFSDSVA

[19] = target: Ribosomal protein S6 kinase alpha-5 (Homo sapiens) (UniProt O75582); details: Compound concentration 1000.0 nM; remark: listed apart in the source
[20] = target: Uncharacterized serine/threonine-protein kinase SBK3 (Homo sapiens) (UniProt P0C264); details: Compound concentration 1000.0 nM
[21] = target: Serine/threonine-protein kinase SIK2 (Homo sapiens) (UniProt Q9H0K1); details: Compound concentration 1000.0 nM
Chain of Serine/threonine-protein kinase SIK2 (Homo sapiens) (Q9H0K1 whole entry, looked up): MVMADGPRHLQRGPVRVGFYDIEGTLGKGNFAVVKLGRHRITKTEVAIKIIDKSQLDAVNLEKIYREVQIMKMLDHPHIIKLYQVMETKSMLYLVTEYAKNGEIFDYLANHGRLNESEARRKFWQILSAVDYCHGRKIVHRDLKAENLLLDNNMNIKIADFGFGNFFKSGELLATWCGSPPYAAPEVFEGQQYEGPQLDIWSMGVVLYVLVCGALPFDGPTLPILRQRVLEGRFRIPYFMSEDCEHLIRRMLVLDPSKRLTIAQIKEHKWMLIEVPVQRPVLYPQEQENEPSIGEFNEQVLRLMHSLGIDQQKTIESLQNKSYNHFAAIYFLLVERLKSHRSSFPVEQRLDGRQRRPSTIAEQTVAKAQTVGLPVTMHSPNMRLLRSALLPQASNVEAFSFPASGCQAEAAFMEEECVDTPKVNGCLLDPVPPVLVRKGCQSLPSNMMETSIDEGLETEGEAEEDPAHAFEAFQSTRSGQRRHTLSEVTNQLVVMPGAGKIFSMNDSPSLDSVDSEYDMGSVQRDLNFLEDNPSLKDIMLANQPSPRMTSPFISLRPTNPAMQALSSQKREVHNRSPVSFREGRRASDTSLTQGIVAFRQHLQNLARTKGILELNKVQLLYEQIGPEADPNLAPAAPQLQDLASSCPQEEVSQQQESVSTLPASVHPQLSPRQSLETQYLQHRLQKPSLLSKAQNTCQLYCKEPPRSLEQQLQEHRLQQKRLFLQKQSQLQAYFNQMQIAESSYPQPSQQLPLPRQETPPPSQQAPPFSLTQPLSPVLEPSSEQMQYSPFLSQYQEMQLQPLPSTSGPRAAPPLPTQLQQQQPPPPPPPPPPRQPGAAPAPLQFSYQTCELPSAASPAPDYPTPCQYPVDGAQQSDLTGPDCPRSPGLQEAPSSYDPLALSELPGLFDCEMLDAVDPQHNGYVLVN

[22] = target: T2, Serine/threonine-protein kinase tousled-like 1 (Homo sapiens) (UniProt Q9UKI8); details: Compound concentration 1000.0 nM
T2 sequence (whole entry): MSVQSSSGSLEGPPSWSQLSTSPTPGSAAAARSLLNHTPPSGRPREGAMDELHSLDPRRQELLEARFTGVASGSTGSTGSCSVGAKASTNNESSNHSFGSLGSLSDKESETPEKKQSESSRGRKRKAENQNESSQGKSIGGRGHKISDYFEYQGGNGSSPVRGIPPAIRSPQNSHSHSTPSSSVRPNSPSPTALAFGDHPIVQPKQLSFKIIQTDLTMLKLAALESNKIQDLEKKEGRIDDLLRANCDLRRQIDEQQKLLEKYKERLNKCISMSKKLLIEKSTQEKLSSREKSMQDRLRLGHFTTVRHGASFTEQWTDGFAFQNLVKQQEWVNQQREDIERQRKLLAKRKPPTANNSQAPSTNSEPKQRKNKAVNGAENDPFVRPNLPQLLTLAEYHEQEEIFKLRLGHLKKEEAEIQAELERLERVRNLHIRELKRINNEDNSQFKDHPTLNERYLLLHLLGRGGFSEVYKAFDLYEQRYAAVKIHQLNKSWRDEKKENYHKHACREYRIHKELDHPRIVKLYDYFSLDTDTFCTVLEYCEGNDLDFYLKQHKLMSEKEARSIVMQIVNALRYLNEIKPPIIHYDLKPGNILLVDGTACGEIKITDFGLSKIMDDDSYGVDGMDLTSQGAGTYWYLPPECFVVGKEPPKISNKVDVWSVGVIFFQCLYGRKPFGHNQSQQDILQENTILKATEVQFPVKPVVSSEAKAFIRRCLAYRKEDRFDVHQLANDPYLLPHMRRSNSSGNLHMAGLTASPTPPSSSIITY

[23] = target: Transient receptor potential cation channel subfamily M member 6 (Homo sapiens) (UniProt Q9BX84); details: Compound concentration 1000.0 nM
Chain of Transient receptor potential cation channel subfamily M member 6 (Homo sapiens) (Q9BX84 whole entry): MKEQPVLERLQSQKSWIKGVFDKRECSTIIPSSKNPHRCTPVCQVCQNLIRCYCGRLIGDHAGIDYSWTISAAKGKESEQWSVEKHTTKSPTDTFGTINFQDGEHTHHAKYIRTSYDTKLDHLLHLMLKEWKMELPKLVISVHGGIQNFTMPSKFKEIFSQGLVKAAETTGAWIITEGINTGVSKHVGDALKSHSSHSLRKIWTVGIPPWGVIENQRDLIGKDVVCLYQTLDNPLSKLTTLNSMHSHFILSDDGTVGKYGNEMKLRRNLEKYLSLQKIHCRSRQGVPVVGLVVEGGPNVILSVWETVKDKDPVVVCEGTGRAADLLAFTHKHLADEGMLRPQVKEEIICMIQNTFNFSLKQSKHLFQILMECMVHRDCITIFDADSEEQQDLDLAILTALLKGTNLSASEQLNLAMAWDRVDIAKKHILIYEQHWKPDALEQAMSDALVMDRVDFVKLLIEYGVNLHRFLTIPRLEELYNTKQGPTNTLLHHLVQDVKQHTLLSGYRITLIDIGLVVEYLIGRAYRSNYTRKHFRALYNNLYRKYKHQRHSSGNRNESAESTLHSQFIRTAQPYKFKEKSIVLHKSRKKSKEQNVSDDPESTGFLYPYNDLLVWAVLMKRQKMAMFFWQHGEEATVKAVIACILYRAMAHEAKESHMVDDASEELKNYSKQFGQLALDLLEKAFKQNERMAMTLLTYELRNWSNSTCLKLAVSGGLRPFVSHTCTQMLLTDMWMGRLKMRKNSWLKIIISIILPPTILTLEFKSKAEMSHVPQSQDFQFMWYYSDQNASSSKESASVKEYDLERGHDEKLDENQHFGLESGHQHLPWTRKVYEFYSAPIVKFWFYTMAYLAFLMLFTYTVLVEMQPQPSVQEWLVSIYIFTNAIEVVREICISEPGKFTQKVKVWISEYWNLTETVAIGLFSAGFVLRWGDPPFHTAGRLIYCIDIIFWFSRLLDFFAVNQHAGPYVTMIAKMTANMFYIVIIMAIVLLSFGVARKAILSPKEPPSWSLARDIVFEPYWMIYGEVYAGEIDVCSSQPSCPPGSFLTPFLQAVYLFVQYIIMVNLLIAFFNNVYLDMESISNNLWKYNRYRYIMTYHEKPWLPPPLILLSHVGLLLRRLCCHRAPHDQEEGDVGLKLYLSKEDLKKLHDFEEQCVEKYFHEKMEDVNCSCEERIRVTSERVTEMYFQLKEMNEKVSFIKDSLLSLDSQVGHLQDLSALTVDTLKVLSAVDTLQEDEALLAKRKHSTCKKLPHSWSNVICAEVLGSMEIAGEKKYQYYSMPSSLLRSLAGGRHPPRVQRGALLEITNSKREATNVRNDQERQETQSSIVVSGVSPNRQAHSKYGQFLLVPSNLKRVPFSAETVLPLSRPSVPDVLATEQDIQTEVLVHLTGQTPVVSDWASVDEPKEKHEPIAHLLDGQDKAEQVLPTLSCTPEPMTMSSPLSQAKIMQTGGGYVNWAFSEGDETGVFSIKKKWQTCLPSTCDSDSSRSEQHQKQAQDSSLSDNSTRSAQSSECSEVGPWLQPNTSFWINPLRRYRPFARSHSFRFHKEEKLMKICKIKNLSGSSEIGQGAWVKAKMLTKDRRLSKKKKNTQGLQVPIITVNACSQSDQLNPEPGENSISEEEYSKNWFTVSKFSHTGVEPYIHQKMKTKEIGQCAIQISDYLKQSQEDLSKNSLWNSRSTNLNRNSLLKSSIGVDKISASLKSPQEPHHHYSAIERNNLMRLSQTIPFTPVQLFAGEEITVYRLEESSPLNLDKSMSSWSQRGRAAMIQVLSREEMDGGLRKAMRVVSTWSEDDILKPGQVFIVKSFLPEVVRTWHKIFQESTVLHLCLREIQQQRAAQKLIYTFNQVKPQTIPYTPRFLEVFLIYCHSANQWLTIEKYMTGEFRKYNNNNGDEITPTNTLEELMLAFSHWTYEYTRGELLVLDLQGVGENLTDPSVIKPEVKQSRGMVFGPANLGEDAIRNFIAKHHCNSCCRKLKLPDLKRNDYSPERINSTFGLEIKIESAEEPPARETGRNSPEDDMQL

[24] = target: Mitogen-activated protein kinase kinase kinase 20 (Homo sapiens) (UniProt Q9NYL2); details: Compound concentration 1000.0 nM
[25] = target: 5-hydroxytryptamine receptor 1D (Homo sapiens) (UniProt P28221); details: Compound concentration 10.0 uM
[26] = target: 5-hydroxytryptamine receptor 7 (Homo sapiens) (UniProt P34969); details: Compound concentration 10.0 uM
[27] = target: D(4) dopamine receptor (Homo sapiens) (UniProt P21917); details: Compound concentration 10.0 uM

Cc1nc(C2CCN(C(=O)c3ccc(OC(F)(F)F)cc3N)CC2)c2ncc(N3CCN(C)CC3)cc2n1 [BAY-693]
inactive: residual activity [1] 92% | residual activity [2] 100% | residual activity [3] 89% | residual activity [4] 88% | residual activity [5] 95% | residual activity [6] 100% | residual activity [7] 100% | residual activity [8] 100% | residual activity [9] 83% | residual activity [10] 90% | residual activity [11] 100% | residual activity [12] 97% | residual activity [13] 100% | residual activity [14] 100% | residual activity [15] 100% | residual activity [16] 100% | residual activity [17] 63% | residual activity [18] 100% | residual activity [19] 90% | residual activity [20] 77% | residual activity [21] 100% | residual activity [22] 100% | residual activity [23] 100% | residual activity [24] 95% | inhibition [25] -2.17% | inhibition [26] -0.78% | inhibition [27] 1.98%

CN1CCN(c2cnc3c(C4CCN(C(=O)c5ccc(OC(F)(F)F)cc5N)CC4)ncnc3c2)CC1 [BAY-885]
inactive: residual activity [1] 86% | residual activity [2] 100% | residual activity [3] 99% | residual activity [4] 90% | residual activity [5] 100% | residual activity [6] 100% | residual activity [7] 79% | residual activity [8] 97% | residual activity [9] 100% | residual activity [10] 90% | residual activity [11] 84% | residual activity [12] 100% | residual activity [13] 98% | residual activity [14] 100% | residual activity [15] 100% | residual activity [16] 100% | residual activity [17] 64% | residual activity [18] 100% | residual activity [19] 96% | residual activity [20] 72% | residual activity [21] 100% | residual activity [22] 100% | residual activity [23] 100% | residual activity [24] 98% | inhibition [25] 16% | inhibition [26] -9.57% | inhibition [27] 12.7%
